According to ChEMBL document CHEMBL1201862, “PubChem BioAssay data set” (2004):
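Step 1: Grow cells in 96-well plates. Step 2: Expose to compound for 48 hours at 5 concentrations. Step 3: Interpolate endpoints linearly; if unreached, use highest concentration. Here, GI50 denotes the concentration required for 50% inhibition of growth.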 Activity calls are given as the source filed them. No stated cut-off is given here; in the data, active = GI50 up to about 1.1 µM and inactive = higher.

Columns and labels:
Experiment in all cases: DTP human tumour cell line panel, 48 h
NCI-H226 = tested on: NCI-H226
SR = tested on: SR
OVCAR-8 = tested on: OVCAR-8
SK-MEL-28 = tested on: SK-MEL-28
OVCAR-5 = tested on: OVCAR-5
EKVX = tested on: EKVX
HT-29 = tested on: HT-29
OVCAR-4 = tested on: OVCAR-4
HCT-15 = tested on: HCT-15
MOLT-4 = tested on: MOLT-4
ACHN = tested on: ACHN
UACC-62 = tested on: UACC-62
PC-3 = tested on: PC-3
K562 = tested on: K562
RPMI-8226 = tested on: RPMI-8226
SF-268 = tested on: SF-268
SK-MEL-5 = tested on: SK-MEL-5
KM12 = tested on: KM12
HL-60 = tested on: HL-60

SMILES | GI50 (NCI-H226) | GI50 (SR) | GI50 (OVCAR-8) | GI50 (SK-MEL-28) | GI50 (OVCAR-5) | GI50 (EKVX) | GI50 (HT-29) | GI50 (OVCAR-4) | GI50 (HCT-15) | GI50 (MOLT-4) | GI50 (ACHN) | GI50 (UACC-62) | GI50 (PC-3) | GI50 (K562) | GI50 (RPMI-8226) | GI50 (SF-268) | GI50 (SK-MEL-5) | GI50 (KM12) | GI50 (HL-60)
N#Cc1c(-c2ccc([N+](=O)[O-])cc2)cc(-c2ccc(Nc3ccnc4cc(C(F)(F)F)ccc34)cc2)[nH]c1=O | > 100 µM (inactive) | > 100 µM (inactive) | > 100 µM (inactive) | > 100 µM (inactive) | 21.4 µM (inactive) | > 100 µM (inactive) | 92.9 µM (inactive) | > 100 µM (inactive) | > 100 µM | > 100 µM (inactive) | > 100 µM (inactive) | > 100 µM (inactive) | > 100 µM (inactive) | > 100 µM (inactive) | > 100 µM (inactive) | > 100 µM (inactive) | > 100 µM (inactive) |  | 
c1ccc2cc(-c3cc4ccccc4s3)ccc2c1 | > 100 µM (inactive) | > 100 µM (inactive) | > 100 µM (inactive) | > 100 µM (inactive) | > 100 µM (inactive) | > 100 µM (inactive) | > 100 µM (inactive) | > 100 µM (inactive) | > 100 µM | 38.2 µM (inactive) | > 100 µM (inactive) | > 100 µM (inactive) |  | > 100 µM (inactive) | > 100 µM (inactive) | > 100 µM (inactive) | > 100 µM (inactive) | > 100 µM (inactive) | > 100 µM (inactive)
O=[N+]([O-])c1cc2c(cc1O)[nH]c1cccc([N+](=O)[O-])c12 | > 100 µM (inactive) | > 100 µM (inactive) | > 100 µM (inactive) | > 100 µM (inactive) | > 100 µM (inactive) |  | > 100 µM (inactive) | > 100 µM (inactive) | > 100 µM | > 100 µM (inactive) | > 100 µM (inactive) |  |  | > 100 µM (inactive) | > 100 µM (inactive) | > 100 µM (inactive) | 40.7 µM (inactive) | > 100 µM (inactive) | > 100 µM (inactive)
c1ccc2c(CNCCCN3CCN(CCCNCc4cccc5ccccc45)CC3)cccc2c1 | 2.81 µM (inactive) | 0.655 µM (active) | 1.77 µM (inactive) | 1.69 µM (inactive) | 2.15 µM (inactive) | 3.6 µM (inactive) | 1.65 µM (inactive) | 2.21 µM (inactive) | 1.8 µM | 1.22 µM (inactive) | 2.75 µM (inactive) | 1.79 µM (inactive) |  | 0.299 µM (active) | 1.03 µM (active) | 2.37 µM (inactive) | 1.74 µM (inactive) | 1.96 µM (inactive) | 1.44 µM (inactive)
CCn1c(O)c(C(=O)Nc2cccs2)c(=O)n(CC)c1=S | 25.5 µM (inactive) | 29.5 µM (inactive) | 14.2 µM (inactive) | 17.3 µM (inactive) | 23.7 µM (inactive) |  | 17.6 µM (inactive) | 15.3 µM (inactive) | 14 µM | 20 µM (inactive) | 21.5 µM (inactive) | 16 µM (inactive) |  | 21.9 µM (inactive) | 20.4 µM (inactive) | 19.3 µM (inactive) | 18 µM (inactive) | 16.8 µM (inactive) | 19.8 µM (inactive)
COc1ccc(/C(Cl)=C/c2ccc(Cl)c(Cl)c2)cc1 | 14.9 µM (inactive) | 18.9 µM (inactive) | 29.1 µM (inactive) | 38.2 µM (inactive) |  | 20.2 µM (inactive) | 18.3 µM (inactive) | 41.5 µM (inactive) | 23.1 µM | 16.2 µM (inactive) | 24.8 µM (inactive) | 24.3 µM (inactive) |  | 35.1 µM (inactive) | 18.2 µM (inactive) | 35.5 µM (inactive) | 18 µM (inactive) |  | 17.3 µM (inactive)
COC(=O)Cc1cc(=O)[nH]c2c1C(=O)CCC2 | > 100 µM (inactive) | > 100 µM (inactive) | > 100 µM (inactive) | > 100 µM (inactive) | > 100 µM (inactive) | > 100 µM (inactive) | > 100 µM (inactive) |  | > 100 µM | > 100 µM (inactive) | > 100 µM (inactive) |  |  | > 100 µM (inactive) | > 100 µM (inactive) | > 100 µM (inactive) | > 100 µM (inactive) | > 100 µM (inactive) | > 100 µM (inactive)
CSc1cnc2ccccc2c1Sc1c[nH]c2ccccc2c1=O | 7.31 µM (inactive) | 3.96 µM (inactive) | 14 µM (inactive) | 11.1 µM (inactive) | 24.4 µM (inactive) | 7.87 µM (inactive) | 3.72 µM (inactive) | 14.1 µM (inactive) | 7.1 µM | 3.28 µM (inactive) | 15.1 µM (inactive) | 4.03 µM (inactive) |  | 3.46 µM (inactive) | 6.65 µM (inactive) | 17.3 µM (inactive) | 6.25 µM (inactive) | 6.82 µM (inactive) | 3.3 µM (inactive)
CCC(=O)c1cn(C)c(=O)c2ccccc12 | > 100 µM (inactive) | > 100 µM (inactive) | > 100 µM (inactive) | > 100 µM (inactive) | > 100 µM (inactive) | > 100 µM (inactive) | > 100 µM (inactive) | > 100 µM (inactive) | > 100 µM | > 100 µM (inactive) | > 100 µM (inactive) | > 100 µM (inactive) |  | > 100 µM (inactive) | > 100 µM (inactive) | > 100 µM (inactive) | > 100 µM (inactive) | > 100 µM (inactive) | > 100 µM (inactive)
COc1ccc2c(C(=O)O)cc3cc(OC)c(OC)cc3c2c1 | > 100 µM (inactive) | > 100 µM (inactive) | > 100 µM (inactive) | > 100 µM (inactive) | > 100 µM (inactive) | > 100 µM (inactive) | > 100 µM (inactive) |  | > 100 µM | > 100 µM (inactive) | > 100 µM (inactive) | > 100 µM (inactive) |  | > 100 µM (inactive) | > 100 µM (inactive) | > 100 µM (inactive) | 43.6 µM (inactive) | > 100 µM (inactive) | 57.4 µM (inactive)
O=S(=O)(O)CS(=O)(=O)OCCCl | > 100 µM (inactive) | > 100 µM (inactive) | > 100 µM (inactive) | > 100 µM (inactive) | > 100 µM (inactive) | > 100 µM (inactive) | > 100 µM (inactive) | > 100 µM (inactive) |  | > 100 µM (inactive) | > 100 µM (inactive) | > 100 µM (inactive) |  | > 100 µM (inactive) | > 100 µM (inactive) | > 100 µM (inactive) | > 100 µM (inactive) | > 100 µM (inactive) | > 100 µM (inactive)
C=C(c1ccc2[nH]c(NC(=O)OC)nc2c1)c1cccs1 | 0.22 µM (active) | < 0.01 µM (active) | 0.299 µM (active) | 3.47 µM (inactive) | 2.1 µM (inactive) | 9.46 µM (inactive) | 0.0568 µM (active) |  | < 0.0349 µM |  | 0.06 µM (active) | 0.121 µM (active) | 0.0914 µM (active) | < 0.0456 µM (active) | 0.316 µM (active) | 2.02 µM (inactive) | 0.0703 µM (active) |  | 
Cc1ccc(C(=O)O/N=C2/CCCCC2CN(C)C)cc1 (centres undefined) | > 100 µM (inactive) | > 100 µM (inactive) | > 100 µM (inactive) | > 100 µM (inactive) | > 100 µM (inactive) | > 100 µM (inactive) | > 100 µM (inactive) | > 100 µM (inactive) | > 100 µM | > 100 µM (inactive) | > 100 µM (inactive) | > 100 µM (inactive) |  | > 100 µM (inactive) | > 100 µM (inactive) | > 10 µM (inactive) | > 100 µM (inactive) | > 100 µM (inactive) | > 100 µM (inactive)
NC1CC(=O)c2ccccc21 (centres undefined) | > 100 µM (inactive) |  | > 100 µM (inactive) | > 100 µM (inactive) | > 100 µM (inactive) | > 100 µM (inactive) | > 100 µM (inactive) | > 100 µM (inactive) | > 100 µM | > 100 µM (inactive) | > 100 µM (inactive) | > 100 µM (inactive) | > 100 µM (inactive) | > 100 µM (inactive) | > 100 µM (inactive) | > 100 µM (inactive) | > 100 µM (inactive) | > 100 µM (inactive) | 
COc1ccc2c(c1)[n+]([O-])c(C(N)=O)c(N)[n+]2[O-] | > 100 µM (inactive) | > 100 µM (inactive) | 95.3 µM (inactive) | > 100 µM (inactive) | > 100 µM (inactive) | > 100 µM (inactive) | 61.9 µM (inactive) | > 100 µM (inactive) | 61 µM |  | > 100 µM (inactive) |  |  | > 100 µM (inactive) | > 100 µM (inactive) |  | 40.1 µM (inactive) | 59.2 µM (inactive) | 40.8 µM (inactive)
CC1(SCC(N)C(=O)O)CC(=O)NC1=O (centres undefined) | > 100 µM (inactive) | > 100 µM (inactive) | > 100 µM (inactive) | > 100 µM (inactive) |  | > 100 µM (inactive) | > 100 µM (inactive) | > 100 µM (inactive) | > 100 µM | > 100 µM (inactive) | 62.4 µM (inactive) | > 100 µM (inactive) |  | > 100 µM (inactive) | > 100 µM (inactive) | > 100 µM (inactive) | > 100 µM (inactive) | > 100 µM (inactive) | > 100 µM (inactive)
Cc1c(-c2ccc(O)c(O)c2)oc(=O)c2c(O)cccc12 |  |  | 53.3 µM (inactive) |  | 14.8 µM (inactive) | 8.87 µM (inactive) |  | 11.7 µM (inactive) | 3.96 µM | 3.02 µM (inactive) | 20 µM (inactive) |  | 12.9 µM (inactive) | 4.85 µM (inactive) | 13.7 µM (inactive) | 9.1 µM (inactive) | 10.4 µM (inactive) | 10.1 µM (inactive) | 3.88 µM (inactive)
